From US20180201609A1 (AURIGENE DISCOVERY TECHNOLOGIES LIMITED, priority 2015, published 2018)
Counter-ions that a name gives are not always drawn.

Target: T1, IRAK-4 enzyme (Homo sapiens, UniProt Q9NWZ3)
T1 construct: purchased Millipore, USA
T1 sequence (Q9NWZ3 1-460): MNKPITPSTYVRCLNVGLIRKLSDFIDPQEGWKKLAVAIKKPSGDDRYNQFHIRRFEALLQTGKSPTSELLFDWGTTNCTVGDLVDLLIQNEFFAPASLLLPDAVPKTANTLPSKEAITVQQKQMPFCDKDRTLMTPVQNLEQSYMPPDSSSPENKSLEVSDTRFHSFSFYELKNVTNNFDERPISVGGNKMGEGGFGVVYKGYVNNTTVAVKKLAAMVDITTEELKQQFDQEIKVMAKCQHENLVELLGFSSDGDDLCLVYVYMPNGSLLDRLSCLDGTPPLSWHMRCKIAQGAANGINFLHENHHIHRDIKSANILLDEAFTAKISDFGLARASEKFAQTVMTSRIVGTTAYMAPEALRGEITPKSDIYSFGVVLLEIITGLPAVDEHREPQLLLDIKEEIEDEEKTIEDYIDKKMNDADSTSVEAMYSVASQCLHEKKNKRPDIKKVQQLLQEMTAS
Test: IRAK-4 Biochemical Assay (TR-FRET)
Details: recombinant IRAK-4 kinase, 20 μM ATP; for inhibition at 0.1 µM: 0.1 μM compound; for inhibition at 1 µM: 1 μM compound
Protocol: Compounds were tested for their potential to inhibit IRAK-4 enzyme in a TR-FRET assay using recombinant IRAK-4 kinase from Millipore, USA. The assay buffer was 50 mM Tris-HCl pH 7.5, 20 mM MgCl2, 1 mM EGTA, 2 mM DTT, 3 mM MnCl2 and 0.01% Tween 20.5 ng of IRAK-4 kinase was used for the assay. After pre-incubation of enzyme with test compound for 30 minutes at room temperature, a substrate mixture containing 100 nM Biotin Histone H3 (Millipore, USA) and 20 μM ATP (Sigma, USA) was added and the reaction was incubated for 30 min. Post incubation, the reaction was stopped by the addition of stop mix containing 40 mM EDTA, 1 nM of Europium-Anti-Phospho-Histone H3 (Ser10) antibody (Perkin Elmer, USA) and 20 nM SureLight Allophycocyanin-Streptavidin (Perkin Elmer, USA). The fluorescence emission at 615 nm and 665 nm were measured at an excitation of 340 nm and the percent inhibition was estimated from the ratio of the fluorescence intensities [(F665/F615)×10000].
The compounds of the present invention were screened in the above mentioned assay and the percent inhibition data is summarized in the Table 1.

inhibition at 0.1 µM [%]	inhibition at 1 µM [%]	Structure (SMILES)
96	97	Cn1ncc2cc(NC(=O)c3coc(-c4cccnc4N)n3)c(N3CCC(O)CC3)cc21 [Example 1, 2-(2-aminopyridin-3-yl)-N-(6-(4-hydroxypiperidin-1-yl)-1-methyl-1H-indazol-5-yl)oxazole-4-carboxamide hydrochloride]
95	98	Cc1cc(-c2nc(C(=O)Nc3cc4cnn(CCN(C)C)c4cc3N3CCC(O)CC3)co2)ccn1 [Example 2, N-(1-(2-(dimethylamino)ethyl)-6-(4-hydroxypiperidin-1-yl)-1H-indazol-5-yl)-2-(2-methylpyridin-4-yl)oxazole-4-carboxamide]
97	100	Cc1cc(-c2nc(C(=O)Nc3cc4cnn(CCN5CCOCC5)c4cc3N3CCC(O)CC3)co2)ccn1 [Example 3, N-(6-(4-hydroxypiperidin-1-yl)-1-(2-morpholinoethyl)-1H-indazol-5-yl)-2-(2-methylpyridin-4-yl)oxazole-4-carboxamide]
95	99	COCCCn1ncc2cc(NC(=O)c3coc(-c4ccnc(C)c4)n3)c(N3CCC(O)CC3)cc21 [Example 4, N-(6-(4-hydroxypiperidin-1-yl)-1-(3-methoxypropyl)-1H-indazol-5-yl)-2-(2-methylpyridin-4-yl)oxazole-4-carboxamide hydrochloride]
94	99	Cc1cc(-c2nc(C(=O)Nc3cc4cnn(CCCN5CCOCC5)c4cc3N3CCC(O)CC3)co2)ccn1 [Example 5, N-(6-(4-hydroxypiperidin-1-yl)-1-(3-morpholinopropyl)-1H-indazol-5-yl)-2-(2-methylpyridin-4-yl)oxazole-4-carboxamide]
79	96	Cc1cc(-c2nc(C(=O)Nc3cc4cnn(CCN5CCN(C)CC5)c4cc3N3CCC(O)CC3)co2)ccn1 [Example 6, N-(6-(4-hydroxypiperidin-1-yl)-1-(2-(4-methylpiperazin-1-yl)ethyl)-1H-indazol-5-yl)-2-(2-methylpyridin-4-yl)oxazole-4-carboxamide]
96	98	COCCn1ncc2cc(NC(=O)c3coc(-c4ccnc(N)c4)n3)c(N3CCC(O)CC3)cc21 [Example 7, 2-(2-aminopyridin-4-yl)-N-(6-(4-hydroxypiperidin-1-yl)-1-(2-methoxyethyl)-1H-indazol-5-yl)oxazole-4-carboxamide hydrochloride]
43	91	Cc1nn(C)c2cc(N3CCC(CO)CC3)c(NC(=O)c3cnn4cccnc34)cc12 [Example 8, N-(6-(4-(hydroxymethyl)piperidin-1-yl)-1,3-dimethyl-1H-indazol-5-yl)pyrazolo[1,5-a]pyrimidine-3-carboxamide hydrochloride]
97	99	COCCn1nc(C)c2cc(NC(=O)c3coc(-c4ccnc(N)c4)n3)c(N3CCC(O)CC3)cc21 [Example 9, 2-(2-aminopyridin-4-yl)-N-(6-(4-hydroxypiperidin-1-yl)-1-(2-methoxyethyl)-3-methyl-1H-indazol-5-yl)oxazole-4-carboxamide]
99	99	COCCn1nc(C)c2cc(NC(=O)c3coc(-c4ccnc(N)c4)n3)c(N3CCC(CO)CC3)cc21 [Example 10, 2-(2-aminopyridin-4-yl)-N-(6-(4-(hydroxymethyl)piperidin-1-yl)-1-(2-methoxyethyl)-3-methyl-1H-indazol-5-yl)oxazole-4-carboxamide hydrochloride]
26	59	Cc1nn(C)c2cc(N3CCC(CO)CC3)c(NC(=O)c3coc(-c4cc(F)c(=O)n(C)c4)n3)cc12 [Example 11, 2-(5-fluoro-1-methyl-6-oxo-1,6-dihydropyridin-3-yl)-N-(6-(4-(hydroxymethyl)piperidin-1-yl)-1,3-dimethyl-1H-indazol-5-yl)oxazole-4-carboxamide hydrochloride]
